Laboratory results reported in patent publication US11780901B2, “Analogues of parathyroid hormone (1-34) that function as agonists of the parathyroid hormone receptor-1 and display modified activity profiles” (Wisconsin Alumni Research Foundation, priority 2013, dated 2023).
Read-outs that look alike come from different tables or passages of the source. Starred links: 1 amine or outer side, 2 acyl side, 3 side chain; linkers in the order of their positions; H or OH if unused. Non-standard residues stand in square brackets, D forms with d. Residues, ends and D or L forms follow the SMILES beside them. X2 = CCCC[C@@H](CN[*:1])C(=O)[*:2]; X1 = CCCC[C@H](CN[*:1])C(=O)[*:2]

Tests used:
Type in all cases: cell-based
PTHR2 = PTHR2 (Homo sapiens, UniProt P49190); assay: PTHR2 activation, cAMP production (GloSensor) in HEK293 cells; parameters: expressed in transfected cells; key to PTHR2 Activation: Derivative EC50/PTH EC50: *** denotes poor tolerance of β amino acid for PTHR2 activation; details: for EC50: HEK-293 cells, GloSensor cAMP, read-out: EC50 (nM) of PTHR2 Activation; for PTHR2 Activation: Derivative EC50/PTH EC50: normalized to EC50 of PTH(1-34)-NH2 ([…] printed), cAMP production
Description: The assays employ HEK-293 cells that have been engineered to express the appropriate receptor. GloSensor-based detection of cAMP provides a read-out of receptor activation. […] (Carter, P. H. et al. Actions of the Small Molecule Ligands SW106 and AH-3960 on the Type-1 Parathyroid Hormone Receptor. Molecular Endocrinology 29, 307-321 (2015).)
FIGS. 10A and 10B depict dose-response curves of PTHR1 activation (FIG. 10A) and PTHR2 activation (FIG. 10B) in HEK293 cells stably expressing PTHR1 or PTHR2. For PTHR1 activation and all the binding data, data represent mean±s.e.m from three independent measurements; For PTHR2 activation, data represent mean±s.e.m from four independent measurements. Curves were fit to the data using a four-parameter sigmoidal dose-response equation.

PTHR1 and PTHR2 = assay: Tolerance pattern of β residues for PTHR1 and PTHR2 activation; parameters: key: “*” denotes potent PTHR1-selective agonism; “#” denotes potent PTHR2-selective agonism; “*#” denotes potent agonism of both PTHR1 and PTHR2; details: PTHR1 vs PTHR2 agonism
Description: Enhanced selectivity via double α→β replacement.

PTHR1 = biological target: T1, PTHR1 (Homo sapiens, UniProt Q03431); assay: PTHR1 activation, cAMP production (GloSensor) in HEK293 cells; parameters: expressed in transfected cells; details: for PTHR1 Activation: Derivative EC50/PTH EC50: normalized to EC50 of PTH(1-34)-NH2 ([…]), cAMP production
T1 sequence (Q03431 27-593): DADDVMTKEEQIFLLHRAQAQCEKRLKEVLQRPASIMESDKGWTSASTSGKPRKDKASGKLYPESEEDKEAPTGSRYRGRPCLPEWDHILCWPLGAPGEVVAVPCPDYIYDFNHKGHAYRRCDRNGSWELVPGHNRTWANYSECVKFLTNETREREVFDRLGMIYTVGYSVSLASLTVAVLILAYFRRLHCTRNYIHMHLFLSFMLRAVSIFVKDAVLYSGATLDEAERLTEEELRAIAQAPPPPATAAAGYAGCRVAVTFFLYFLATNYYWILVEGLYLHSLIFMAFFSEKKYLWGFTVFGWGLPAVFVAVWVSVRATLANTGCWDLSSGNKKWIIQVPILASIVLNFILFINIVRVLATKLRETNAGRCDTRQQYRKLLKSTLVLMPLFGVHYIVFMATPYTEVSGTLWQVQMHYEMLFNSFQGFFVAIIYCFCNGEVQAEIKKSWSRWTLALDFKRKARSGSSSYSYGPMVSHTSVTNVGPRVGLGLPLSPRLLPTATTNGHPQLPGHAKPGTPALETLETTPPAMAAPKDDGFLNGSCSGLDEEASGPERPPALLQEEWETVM

[1] = HEK-293 cells, GloSensor cAMP, read-out: EC50 (nM) of PTHR1 Activation

Chain of PTHR2 (P49190 25-550): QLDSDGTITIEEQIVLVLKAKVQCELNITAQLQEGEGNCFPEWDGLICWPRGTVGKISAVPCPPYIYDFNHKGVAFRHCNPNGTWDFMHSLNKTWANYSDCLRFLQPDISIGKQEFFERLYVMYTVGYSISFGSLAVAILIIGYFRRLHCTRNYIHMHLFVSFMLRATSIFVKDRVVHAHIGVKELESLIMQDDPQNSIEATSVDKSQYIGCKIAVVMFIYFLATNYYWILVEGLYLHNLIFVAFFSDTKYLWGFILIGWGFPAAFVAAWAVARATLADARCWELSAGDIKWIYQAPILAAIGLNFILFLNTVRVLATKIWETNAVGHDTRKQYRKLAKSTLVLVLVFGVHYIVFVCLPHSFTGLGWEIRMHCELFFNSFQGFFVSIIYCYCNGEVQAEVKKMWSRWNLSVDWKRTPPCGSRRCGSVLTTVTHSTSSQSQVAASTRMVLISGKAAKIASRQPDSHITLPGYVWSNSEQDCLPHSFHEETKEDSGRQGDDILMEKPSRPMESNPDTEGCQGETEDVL

| EC50 (PTHR1; [1]) [nM] | PTHR1 Activation: Derivative EC50/PTH EC50 (PTHR1) | EC50 (PTHR1; Table 8, hPTHR1, read-out: PTHR1 EC50) [nM] | Compound | EC50 (PTHR2) [nM] | Tolerance Pattern of β AA (PTHR1 and PTHR2) | PTHR2 Activation: Derivative EC50/PTH EC50 (PTHR2) |
| --- | --- | --- | --- | --- | --- | --- |
| 8.45 ± 1.35 | 22.24 | – | CC[C@H](C)[C@H](NC(=O)[C@H](CCC(=O)O)NC(=O)[C@H](CO)NC(=O)[C@@H](NC(=O)[C@@H](N)CO)C(C)C)C(=O)N[C@@H](CCC(N)=O)CC(=O)N[C@@H](CC(C)C)C(=O)N[C@@H](CCSC)C(=O)N[C@@H](Cc1c[nH]cn1)C(=O)N[C@@H](CC(N)=O)C(=O)N[C@@H](CC(C)C)C(=O)NCC(=O)N[C@@H](CCCCN)C(=O)N[C@@H](Cc1c[nH]cn1)C(=O)N[C@@H](CC(C)C)C(=O)N[C@@H](CC(N)=O)C(=O)N[C@@H](CO)C(=O)N[C@@H](CCSC)C(=O)N[C@@H](CCC(=O)O)C(=O)N[C@@H](CCCNC(=N)N)C(=O)N[C@H](C(=O)N[C@@H](CCC(=O)O)C(=O)N[C@@H](Cc1c[nH]c2ccccc12)C(=O)N[C@@H](CC(C)C)C(=O)N[C@@H](CCCNC(=N)N)C(=O)N[C@@H](CCCCN)C(=O)N[C@@H](CCCCN)C(=O)N[C@@H](CC(C)C)C(=O)N[C@@H](CCC(N)=O)C(=O)N[C@@H](CC(=O)O)C(=O)N[C@H](C(=O)N[C@@H](Cc1c[nH]cn1)C(=O)N[C@@H](CC(N)=O)C(=O)N[C@@H](Cc1ccccc1)C(N)=O)C(C)C)C(C)C [SEQ. ID. NO: 43] | – | # | – |
| 0.38 ± 0.07 | 1.00 | 10.3 ± 1.65 | CCCC[C@@H](CNC(=O)[C@H](CC(C)C)NC(=O)[C@H](CCC(N)=O)NC(=O)[C@@H](NC(=O)[C@H](CCC(=O)O)NC(=O)[C@H](CO)NC(=O)[C@@H](NC(=O)[C@@H](N)CO)C(C)C)[C@@H](C)CC)C(=O)N[C@@H](Cc1c[nH]cn1)C(=O)N[C@@H](CC(N)=O)C(=O)N[C@@H](CC(C)C)C(=O)NCC(=O)N[C@@H](CCCCN)C(=O)N[C@@H](Cc1c[nH]cn1)C(=O)N[C@@H](CC(C)C)C(=O)N[C@@H](CC(N)=O)C(=O)N[C@@H](CO)C(=O)N[C@@H](CCSC)C(=O)N[C@@H](CCC(=O)O)C(=O)N[C@@H](CCCNC(=N)N)C(=O)N[C@H](C(=O)N[C@@H](CCC(=O)O)C(=O)N[C@@H](Cc1c[nH]c2ccccc12)C(=O)N[C@@H](CC(C)C)C(=O)N[C@@H](CCCNC(=N)N)C(=O)N[C@@H](CCCCN)C(=O)N[C@@H](CCCCN)C(=O)N[C@@H](CC(C)C)C(=O)N[C@@H](CCC(N)=O)C(=O)N[C@@H](CC(=O)O)C(=O)N[C@H](C(=O)N[C@@H](Cc1c[nH]cn1)C(=O)N[C@@H](CC(N)=O)C(=O)N[C@@H](Cc1ccccc1)C(N)=O)C(C)C)C(C)C [SEQ. ID. NO: 37] (H-SVSEIQL[X2]HNLGKHLNSMERVEWLRKKLQDVHNF-NH2; N-terminus assumed) | 10.3 ± 1.65 | * | 11.85 |

More lines, now with the values behind:

| Compound | EC50 (PTHR1; [1]) [nM] | PTHR1 Activation: Derivative EC50/PTH EC50 (PTHR1) | EC50 (PTHR1; Table 8, hPTHR1, read-out: PTHR1 EC50) [nM] | EC50 (PTHR2) [nM] | Tolerance Pattern of β AA (PTHR1 and PTHR2) | PTHR2 Activation: Derivative EC50/PTH EC50 (PTHR2) |
| --- | --- | --- | --- | --- | --- | --- |
| CC[C@H](C)[C@H](NC(=O)[C@H](CCC(=O)O)NC(=O)[C@H](CO)NC(=O)[C@@H](NC(=O)[C@@H](N)CO)C(C)C)C(=O)N[C@@H](CCC(N)=O)C(=O)N[C@H](CC(=O)N[C@@H](CCSC)C(=O)N[C@@H](Cc1c[nH]cn1)C(=O)N[C@@H](CC(N)=O)C(=O)N[C@@H](CC(C)C)C(=O)NCC(=O)N[C@@H](CCCCN)C(=O)N[C@@H](Cc1c[nH]cn1)C(=O)N[C@@H](CC(C)C)C(=O)N[C@@H](CC(N)=O)C(=O)N[C@@H](CO)C(=O)N[C@@H](CCSC)C(=O)N[C@@H](CCC(=O)O)C(=O)N[C@@H](CCCNC(=N)N)C(=O)N[C@H](C(=O)N[C@@H](CCC(=O)O)C(=O)N[C@@H](Cc1c[nH]c2ccccc12)C(=O)N[C@@H](CC(C)C)C(=O)N[C@@H](CCCNC(=N)N)C(=O)N[C@@H](CCCCN)C(=O)N[C@@H](CCCCN)C(=O)N[C@@H](CC(C)C)C(=O)N[C@@H](CCC(N)=O)C(=O)N[C@@H](CC(=O)O)C(=O)N[C@H](C(=O)N[C@@H](Cc1c[nH]cn1)C(=O)N[C@@H](CC(N)=O)C(=O)N[C@@H](Cc1ccccc1)C(N)=O)C(C)C)C(C)C)CC(C)C [SEQ. ID. NO: 44] | – | – | – | 35 ± 2.84 | * | – |
| CC[C@H](C)[C@H](NC(=O)[C@H](CCC(=O)O)NC(=O)[C@H](CO)NC(=O)[C@@H](NC(=O)[C@@H](N)CO)C(C)C)C(=O)N[C@@H](CCC(N)=O)C(=O)NC[C@@H](CC(C)C)C(=O)N[C@@H](CCSC)C(=O)N[C@@H](Cc1c[nH]cn1)C(=O)N[C@@H](CC(N)=O)C(=O)N[C@@H](CC(C)C)C(=O)NCC(=O)N[C@@H](CCCCN)C(=O)N[C@@H](Cc1c[nH]cn1)C(=O)N[C@@H](CC(C)C)C(=O)N[C@@H](CC(N)=O)C(=O)N[C@@H](CO)C(=O)N[C@@H](CCSC)C(=O)N[C@@H](CCC(=O)O)C(=O)N[C@@H](CCCNC(=N)N)C(=O)N[C@H](C(=O)N[C@@H](CCC(=O)O)C(=O)N[C@@H](Cc1c[nH]c2ccccc12)C(=O)N[C@@H](CC(C)C)C(=O)N[C@@H](CCCNC(=N)N)C(=O)N[C@@H](CCCCN)C(=O)N[C@@H](CCCCN)C(=O)N[C@@H](CC(C)C)C(=O)N[C@@H](CCC(N)=O)C(=O)N[C@@H](CC(=O)O)C(=O)N[C@H](C(=O)N[C@@H](Cc1c[nH]cn1)C(=O)N[C@@H](CC(N)=O)C(=O)N[C@@H](Cc1ccccc1)C(N)=O)C(C)C)C(C)C [SEQ. ID. NO: 28] | 0.36 ± 0.11 | 0.95 | – | 41.4 ± 5.18 | * | 47.64 |
| CCCC[C@H](CNC(=O)[C@H](CC(C)C)NC(=O)[C@H](CCC(N)=O)NC(=O)[C@@H](NC(=O)[C@H](CCC(=O)O)NC(=O)[C@H](CO)NC(=O)[C@@H](NC(=O)[C@@H](N)CO)C(C)C)[C@@H](C)CC)C(=O)N[C@@H](Cc1c[nH]cn1)C(=O)N[C@@H](CC(N)=O)C(=O)N[C@@H](CC(C)C)C(=O)NCC(=O)N[C@@H](CCCCN)C(=O)N[C@@H](Cc1c[nH]cn1)C(=O)N[C@@H](CC(C)C)C(=O)N[C@@H](CC(N)=O)C(=O)N[C@@H](CO)C(=O)N[C@@H](CCSC)C(=O)N[C@@H](CCC(=O)O)C(=O)N[C@@H](CCCNC(=N)N)C(=O)N[C@H](C(=O)N[C@@H](CCC(=O)O)C(=O)N[C@@H](Cc1c[nH]c2ccccc12)C(=O)N[C@@H](CC(C)C)C(=O)N[C@@H](CCCNC(=N)N)C(=O)N[C@@H](CCCCN)C(=O)N[C@@H](CCCCN)C(=O)N[C@@H](CC(C)C)C(=O)N[C@@H](CCC(N)=O)C(=O)N[C@@H](CC(=O)O)C(=O)N[C@H](C(=O)N[C@@H](Cc1c[nH]cn1)C(=O)N[C@@H](CC(N)=O)C(=O)N[C@@H](Cc1ccccc1)C(N)=O)C(C)C)C(C)C [SEQ. ID. NO: 29] (H-SVSEIQL[X1]HNLGKHLNSMERVEWLRKKLQDVHNF-NH2; N-terminus assumed) | 0.4 ± 0.07 | 1.05 | – | > 1000 | * | *** |
